Like-named read-outs stand apart in the source and are kept apart here.
Tests used:
[1] = Conversion rate (CR) assay with fluorescamine; format: physicochemical; design: key to CR: % = 100−100×filtrate/original fluorescence intensity
In short: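 β-sheet content came from ATR FT-IR spectra of lyophilized 1 mg/mL nanofibril solution (64 scans, 2 cm^-1 resolution). Conversion was measured by separating free monomer with a 3 kDa cutoff filter, then comparing fluorescamine fluorescence (ex 365/em 470 nm, 20 min RT) of filtrate versus unfiltered sample, in triplicate.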

[2] = format: physicochemical; details: for ThT Cat. / ThT-Fluorescence (categorical): ThT-active if fluorescence at least twice the control
In short: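 Preformed peptide fibrils (1 mg/mL) mixed with 50 µM ThT in PBS, 15 min at RT, fluorescence ex 440/em 488 nm versus PBS blank, triplicates. Zeta potential: peptides at 1 mg/mL in PBS pH 7.4, aged 1 d at RT, diluted in 1 mM KCl, Smoluchowski from electrophoretic mobility.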

[3] = Fig. S7 panel B, conversion rate, fluorescamine assay
[4] = conversion rate, fluorescamine assay
[5] = ThT fluorescence category, 1 if Rel. ThT >2

Substance	CR / % [1, 3]	CR [1, 4]	Tht category (> 2 to blank = +) ([2]; Fig S10 panel D)	ThT Cat. ([2]; Fig S10 panel E)	ThT Cat, ([2]; ThT category, 1 if Rel. ThT >2)	ThT Cat. ([2]; ThT category, 1 if Rel. ThT >2)	ThT Cat. / ThT-Fluorescence (categorical) [2]	Tht category (> 2 to blank = +) ([2]; FigS12 panel A)	ThT Cat, ([2]; FigS12 panel B)	CR / % ([1]; conversion of monomer to nanostructures, 3 kDa MWCO filtration, fluorescamine, ex 365 / em 470 nm, triplicate)	Rel. ThT ([2]; n-fold ThT fluorescence vs control (PBS, 10% DMSO), 4 µL 1 mg/mL fibrils + 20 µL 50 µM ThT, 15 min RT, ex 440 / em 488 nm, triplicate)	ThT Cat. [2, 5]
RGECKFKFQF	98.7%	98.71	1 (ThT. Cat is 1, if Rel. ThT >2)	1 (ThT. Cat is 1, if Rel. ThT >2)	1 (ThT. Cat is 1, if Rel. ThT >2)	1 (ThT. Cat is 1, if Rel. ThT >2)	1 (ThT. Cat is 1, if Rel. ThT >2)					
RGEKIKIQINM	80.3%	80.28	1 (ThT. Cat is 1, if Rel. ThT >2)	1 (ThT. Cat is 1, if Rel. ThT >2)	1 (ThT. Cat is 1, if Rel. ThT >2)	1 (ThT. Cat is 1, if Rel. ThT >2)	1 (ThT. Cat is 1, if Rel. ThT >2)					
KNERIKNERI	54.4%	54.36	0 (ThT-inactive (N-Fold <2))	0 (ThT-inactive (N-Fold <2))	0 (ThT-inactive (N-Fold <2))	0 (ThT-inactive (N-Fold <2))	0 (ThT-inactive (N-Fold <2))	0 (ThT-inactive (N-Fold <2))	0 (ThT-inactive (N-Fold <2))			
CKIKQIINM	45%	45	1 (ThT. Cat is 1, if Rel. ThT >2)	1 (ThT. Cat is 1, if Rel. ThT >2)	1 (ThT. Cat is 1, if Rel. ThT >2)	1 (ThT. Cat is 1, if Rel. ThT >2)	1 (ThT. Cat is 1, if Rel. ThT >2)					
HRRHFRHKITKKK	44.9%	44.91	0 (ThT-inactive (N-Fold <2))	0 (ThT-inactive (N-Fold <2))	0 (ThT-inactive (N-Fold <2))	0 (ThT-inactive (N-Fold <2))	0 (ThT-inactive (N-Fold <2))	0 (ThT-inactive (N-Fold <2))	0 (ThT-inactive (N-Fold <2))			
KIKQIINMWQ	90.1%	90.09	1 (ThT. Cat is 1, if Rel. ThT >2)	1 (ThT. Cat is 1, if Rel. ThT >2)	1 (ThT. Cat is 1, if Rel. ThT >2)	1 (ThT. Cat is 1, if Rel. ThT >2)	1 (ThT. Cat is 1, if Rel. ThT >2)					
RGDKIRGDKI	48.4%	48.38	0 (ThT-inactive (N-Fold <2))	0 (ThT-inactive (N-Fold <2))	0 (ThT-inactive (N-Fold <2))	0 (ThT-inactive (N-Fold <2))	0 (ThT-inactive (N-Fold <2))	0 (ThT-inactive (N-Fold <2))	0 (ThT-inactive (N-Fold <2))			
CRFRFQF	98.1%	98.13	1 (ThT. Cat is 1, if Rel. ThT >2)	1 (ThT. Cat is 1, if Rel. ThT >2)	1 (ThT. Cat is 1, if Rel. ThT >2)	1 (ThT. Cat is 1, if Rel. ThT >2)	1 (ThT. Cat is 1, if Rel. ThT >2)					
CKFKFQFNMWQ	97.5%	97.52	1 (ThT. Cat is 1, if Rel. ThT >2)	1 (ThT. Cat is 1, if Rel. ThT >2)	1 (ThT. Cat is 1, if Rel. ThT >2)	1 (ThT. Cat is 1, if Rel. ThT >2)	1 (ThT. Cat is 1, if Rel. ThT >2)					
KAKAQANMWQ	56.2%	56.24	0 (ThT-inactive (N-Fold <2))	0 (ThT-inactive (N-Fold <2))	0 (ThT-inactive (N-Fold <2))	0 (ThT-inactive (N-Fold <2))	0 (ThT-inactive (N-Fold <2))	0 (ThT-inactive (N-Fold <2))	0 (ThT-inactive (N-Fold <2))	56%	1	
KFKFQFNMWQ	96.2%	96.16	1 (ThT. Cat is 1, if Rel. ThT >2)	1 (ThT. Cat is 1, if Rel. ThT >2)	1 (ThT. Cat is 1, if Rel. ThT >2)	1 (ThT. Cat is 1, if Rel. ThT >2)	1 (ThT. Cat is 1, if Rel. ThT >2)					
KIKQIINM	43%	43	0 (ThT-inactive (N-Fold <2))	0 (ThT-inactive (N-Fold <2))	0 (ThT-inactive (N-Fold <2))		0 (ThT-inactive (N-Fold <2))					0 (ThT-inactive (N-Fold <2))
CETMYDKILKNLSRSR	98.9%	98.89	0 (ThT-inactive (N-Fold <2))	0 (ThT-inactive (N-Fold <2))	0 (ThT-inactive (N-Fold <2))	0 (ThT-inactive (N-Fold <2))	0 (ThT-inactive (N-Fold <2))	0 (ThT-inactive (N-Fold <2))	0 (ThT-inactive (N-Fold <2))			
CKFC	35.9%	35.92	0 (ThT-inactive (N-Fold <2))	0 (ThT-inactive (N-Fold <2))	0 (ThT-inactive (N-Fold <2))	0 (ThT-inactive (N-Fold <2))	0 (ThT-inactive (N-Fold <2))	0 (ThT-inactive (N-Fold <2))	0 (ThT-inactive (N-Fold <2))			
KIKIQINMWQ	94.3%	94.34	1 (ThT. Cat is 1, if Rel. ThT >2)	1 (ThT. Cat is 1, if Rel. ThT >2)	1 (ThT. Cat is 1, if Rel. ThT >2)	1 (ThT. Cat is 1, if Rel. ThT >2)	1 (ThT. Cat is 1, if Rel. ThT >2)					
KIKIQI	18.9%	18.91	0 (ThT-inactive (N-Fold <2))	0 (ThT-inactive (N-Fold <2))	0 (ThT-inactive (N-Fold <2))		0 (ThT-inactive (N-Fold <2))	0 (ThT-inactive (N-Fold <2))	0 (ThT-inactive (N-Fold <2))			0 (ThT-inactive (N-Fold <2))
KAKAQA	0.3%	0.3138	0 (ThT-inactive (N-Fold <2))	0 (ThT-inactive (N-Fold <2))	0 (ThT-inactive (N-Fold <2))		0 (ThT-inactive (N-Fold <2))	0 (ThT-inactive (N-Fold <2))	0 (ThT-inactive (N-Fold <2))			0 (ThT-inactive (N-Fold <2))
CRFRVPF	97.1%	97.05	0 (ThT-inactive (N-Fold <2))	0 (ThT-inactive (N-Fold <2))	0 (ThT-inactive (N-Fold <2))	0 (ThT-inactive (N-Fold <2))	0 (ThT-inactive (N-Fold <2))	0 (ThT-inactive (N-Fold <2))	0 (ThT-inactive (N-Fold <2))			
RLRLTLC	87.4%	87.44	0 (ThT-inactive (N-Fold <2))	0 (ThT-inactive (N-Fold <2))	0 (ThT-inactive (N-Fold <2))	0 (ThT-inactive (N-Fold <2))	0 (ThT-inactive (N-Fold <2))	0 (ThT-inactive (N-Fold <2))	0 (ThT-inactive (N-Fold <2))			
CKFKFQFNM	93.5%	93.52	1 (ThT. Cat is 1, if Rel. ThT >2)	1 (ThT. Cat is 1, if Rel. ThT >2)	1 (ThT. Cat is 1, if Rel. ThT >2)	1 (ThT. Cat is 1, if Rel. ThT >2)	1 (ThT. Cat is 1, if Rel. ThT >2)					
MKFKFQF	86.9%	86.86	0 (ThT-inactive (N-Fold <2))	0 (ThT-inactive (N-Fold <2))	0 (ThT-inactive (N-Fold <2))	0 (ThT-inactive (N-Fold <2))	0 (ThT-inactive (N-Fold <2))	0 (ThT-inactive (N-Fold <2))	0 (ThT-inactive (N-Fold <2))			
HIHIQIC	82.7%	82.72	1 (ThT. Cat is 1, if Rel. ThT >2)	1 (ThT. Cat is 1, if Rel. ThT >2)	1 (ThT. Cat is 1, if Rel. ThT >2)	1 (ThT. Cat is 1, if Rel. ThT >2)	1 (ThT. Cat is 1, if Rel. ThT >2)					
